In patent US7994185B2, “Benzene sulfonamide thiazole and oxazole compounds” (Glaxo Smith Kline LLC, priority 2008, dated 2011):
Where two headings read alike, the source gives them in different places.

Legend:
[1] = tested on: Human colon tumor cells (Colo205); assay: Cell growth inhibition assay (CellTiter-Glo), Colo205; assay type: cell-based
Outline: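 Growth is estimated from total cellular ATP measured by CellTiter-Glo luminescence after a 3-day compound exposure at 37 °C. Compounds are tested as 1:3 dilution series in 0.2% final DMSO, with inhibition expressed relative to vehicle-treated wells.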

[2] = target: T1, BRAFV600E full-length (amino acids 2-766) (Homo sapiens, UniProt P15056, V600E); assay: B-Raf Accelerated MEK ATPase assay (BRAMA); assay type: biochemical
T1 construct: His6-tagged BRAFV600E full-length (amino acids 2-766); His6; made in house; host or cells: baculovirus expression system (insect cells)
T1 sequence (P15056 2-766 V600E): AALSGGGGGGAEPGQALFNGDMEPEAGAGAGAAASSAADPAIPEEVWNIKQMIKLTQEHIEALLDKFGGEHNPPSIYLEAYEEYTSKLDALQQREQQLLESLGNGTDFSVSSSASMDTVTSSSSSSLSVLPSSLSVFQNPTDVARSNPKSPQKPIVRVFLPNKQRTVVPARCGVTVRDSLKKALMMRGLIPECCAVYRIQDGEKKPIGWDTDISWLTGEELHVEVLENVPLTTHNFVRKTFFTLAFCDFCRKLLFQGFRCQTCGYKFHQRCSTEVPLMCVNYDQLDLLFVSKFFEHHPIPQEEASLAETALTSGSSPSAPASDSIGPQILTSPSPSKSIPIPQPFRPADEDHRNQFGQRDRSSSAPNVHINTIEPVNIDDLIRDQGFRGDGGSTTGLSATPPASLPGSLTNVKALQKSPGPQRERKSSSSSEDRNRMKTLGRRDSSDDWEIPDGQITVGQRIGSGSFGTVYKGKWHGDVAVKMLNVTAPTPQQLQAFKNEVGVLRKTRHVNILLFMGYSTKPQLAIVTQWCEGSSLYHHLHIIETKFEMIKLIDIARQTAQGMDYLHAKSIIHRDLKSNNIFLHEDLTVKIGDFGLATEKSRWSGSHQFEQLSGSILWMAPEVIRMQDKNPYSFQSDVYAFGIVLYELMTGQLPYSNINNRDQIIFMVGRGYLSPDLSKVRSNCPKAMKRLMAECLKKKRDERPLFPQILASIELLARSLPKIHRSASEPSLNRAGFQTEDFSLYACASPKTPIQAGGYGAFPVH
Outline: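 Coupled-enzyme readout: ADP generated by MEK-mediated ATP hydrolysis, uncoupled from ERK phosphorylation, is linked to NADH oxidation through pyruvate kinase and lactate dehydrogenase.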

[3] = tested on: Human melanoma cancer cells (SK-MEL-28); assay: Cell growth inhibition assay (CellTiter-Glo), SK-MEL-28; assay type: cell-based
[4] = COLO 205, 72 h, Table 2a, 3 days incubation, read-out: Activity in Colo205 Tumor Cells
[5] = COLO 205, Table 2b, later runs, average for the one or more runs, categorized, read-out: IC50 for Colo205
[6] = B-Raf Activity, Table 1a, highest pIC50 for the one or more runs, categorized
[7] = B-Raf pIC50, Table 1b, later runs, average pIC50 for the one or more runs, categorized
[8] = SK-MEL-28, 72 h, Table 3a, 3 days incubation, read-out: Activity in SK-MEL-28 Tumor Cells
[9] = SK-MEL-28, Table 3b, later runs, average for the one or more runs, categorized, read-out: IC50 for SK-MEL-28
[10] = Table 1b, later runs, average pIC50 for the one or more runs, categorized, read-out: B-Raf pIC50 (converted)

Nc1nccc(-c2sc(C3CCC3)nc2-c2cccc(NS(=O)(=O)c3c(F)cccc3F)c2Cl)n1 [Example 72, N-{3-[5-(2-Amino-4-pyrimidinyl)-2-cyclobutyl-1,3-thiazol-4-yl]-2-chlorophenyl}-2,6-difluorobenzenesulfonamide]
IC50 [1, 4]: 100 to 1000 nM
IC50 [1, 5]: 100 to 1000 nM
IC50 [2, 6]: < 100 nM
IC50 [2, 7]: ≤ 3.16 nM
IC50 [3, 8]: < 100 nM
IC50 [3, 9]: < 100 nM

CNc1nccc(-c2sc(C(C)C)nc2-c2ccc(F)c(NS(=O)(=O)c3cc(F)ccc3F)c2)n1 [Example 73, 2,5-Difluoro-N-{2-fluoro-5-[5-[2-(methylamino)-4-pyrimidinyl]-2-(1-methylethyl)-1,3-thiazol-4-yl]phenyl}benzenesulfonamide]
IC50 [1, 4]: > 1000 nM
IC50 [1, 5]: 1000 to 10000 nM
IC50 [2, 6]: < 100 nM
IC50 [2, 10]: 3.16 to 31.6 nM
IC50 [3, 8]: > 1000 nM
IC50 [3, 9]: 1000 to 10000 nM

CC(C)c1nc(-c2ccc(F)c(NS(=O)(=O)c3cc(F)ccc3F)c2)c(-c2ccnc(NC3CC(C)(C)NC(C)(C)C3)n2)s1 [Example 74, 2,5-Difluoro-N-[2-fluoro-5-(2-(1-methylethyl)-5-{2-[(2,2,6,6-tetramethyl-4-piperidinyl)amino]-4-pyrimidinyl}-1,3-thiazol-4-yl)phenyl]benzenesulfonamide]
IC50 [1, 4]: < 100 nM
IC50 [1, 5]: < 100 nM
IC50 [2, 6]: < 100 nM
IC50 [2, 7]: ≤ 3.16 nM
IC50 [3, 8]: 100 to 1000 nM
IC50 [3, 9]: 100 to 1000 nM

CC(C)c1nc(-c2ccc(F)c(NS(=O)(=O)c3cc(F)ccc3F)c2)c(-c2ccnc(NC3CCN(S(C)(=O)=O)CC3)n2)s1 [Example 75, 2,5-Difluoro-N-{2-fluoro-5-[2-(1-methylethyl)-5-(2-{[1-(methylsulfonyl)-4-piperidinyl]amino}-4-pyrimidinyl)-1,3-thiazol-4-yl]phenyl}benzenesulfonamide]
IC50 [1, 4]: < 100 nM
IC50 [1, 5]: < 100 nM
IC50 [2, 6]: < 100 nM
IC50 [2, 7]: ≤ 3.16 nM
IC50 [3, 8]: < 100 nM
IC50 [3, 9]: < 100 nM

CC(C)c1nc(-c2ccc(F)c(NS(=O)(=O)c3cc(F)ccc3F)c2)c(-c2ccnc(NC3CCOCC3)n2)s1 [Example 76, 2,5-Difluoro-N-(2-fluoro-5-{2-(1-methylethyl)-5-[2-(tetrahydro-2H-pyran-4-ylamino)-4-pyrimidinyl]-1,3-thiazol-4-yl}phenyl)benzenesulfonamide]
IC50 [1, 4]: 100 to 1000 nM
IC50 [1, 5]: 100 to 1000 nM
IC50 [2, 6]: < 100 nM
IC50 [2, 10]: 3.16 to 31.6 nM
IC50 [3, 8]: 100 to 1000 nM
IC50 [3, 9]: 100 to 1000 nM

CC(=O)N1CCC(Nc2nccc(-c3sc(C(C)C)nc3-c3ccc(F)c(NS(=O)(=O)c4cc(F)ccc4F)c3)n2)CC1 [Example 77, N-{5-[5-{2-[(1-Acetyl-4-piperidinyl)amino]-4-pyrimidinyl}-2-(1-methylethyl)-1,3-thiazol-4-yl]-2-fluorophenyl}-2,5-difluorobenzenesulfonamide]
IC50 [1, 4]: < 100 nM
IC50 [1, 5]: < 100 nM
IC50 [2, 6]: < 100 nM
IC50 [2, 10]: 3.16 to 31.6 nM
IC50 [3, 8]: < 100 nM
IC50 [3, 9]: < 100 nM

CC(C)(C)c1nc(-c2cccc(NS(=O)(=O)c3c(F)cccc3F)c2F)c(-c2ccnc(NC3CCN(S(C)(=O)=O)CC3)n2)s1 [Example 78, N-{3-[2-(1,1-Dimethylethyl)-5-(2-{[1-(methylsulfonyl)-4-piperidinyl]amino}-4-pyrimidinyl)-1,3-thiazol-4-yl]-2-fluorophenyl}-2,6-difluorobenzenesulfonamide]
IC50 [1, 4]: < 100 nM
IC50 [1, 5]: < 100 nM
IC50 [2, 6]: < 100 nM
IC50 [2, 7]: ≤ 3.16 nM
IC50 [3, 8]: < 100 nM
IC50 [3, 9]: < 100 nM

CS(=O)(=O)N1CCC(Nc2nccc(-c3sc(N4CCOCC4)nc3-c3cccc(NS(=O)(=O)c4c(F)cccc4F)c3F)n2)CC1 [Example 79, 2,6-Difluoro-N-{2-fluoro-3-[5-(2-{[1-(methylsulfonyl)-4-piperidinyl]amino}-4-pyrimidinyl)-2-(4-morpholinyl)-1,3-thiazol-4-yl]phenyl}benzenesulfonamide]
IC50 [1, 4]: < 100 nM
IC50 [1, 5]: < 100 nM
IC50 [2, 6]: < 100 nM
IC50 [2, 7]: ≤ 3.16 nM
IC50 [3, 8]: < 100 nM
IC50 [3, 9]: < 100 nM

CS(=O)(=O)N1CCC(Nc2nccc(-c3sc(C4CCC4)nc3-c3ccc(F)c(NS(=O)(=O)c4cc(F)ccc4F)c3)n2)CC1 [Example 80, N-{5-[2-Cyclobutyl-5-(2-{[1-(methylsulfonyl)-4-piperidinyl]amino}-4-pyrimidinyl)-1,3-thiazol-4-yl]-2-fluorophenyl}-2,5-difluorobenzenesulfonamide]
IC50 [1, 4]: 100 to 1000 nM
IC50 [1, 5]: 100 to 1000 nM
IC50 [2, 6]: < 100 nM
IC50 [2, 10]: 3.16 to 31.6 nM
IC50 [3, 8]: 100 to 1000 nM
IC50 [3, 9]: 100 to 1000 nM

CS(=O)(=O)N1CCC(Nc2nccc(-c3sc(C4CCC4)nc3-c3cccc(NS(=O)(=O)c4cc(F)ccc4F)c3F)n2)CC1 [Example 81, N-{3-[2-Cyclobutyl-5-(2-{[1-(methylsulfonyl)-4-piperidinyl]amino}-4-pyrimidinyl)-1,3-thiazol-4-yl]-2-fluorophenyl}-2,5-difluorobenzenesulfonamide]
IC50 [1, 4]: < 100 nM
IC50 [1, 5]: < 100 nM
IC50 [2, 6]: < 100 nM
IC50 [2, 7]: ≤ 3.16 nM
IC50 [3, 8]: < 100 nM
IC50 [3, 9]: < 100 nM

CS(=O)(=O)N1CCC(Nc2nccc(-c3sc(N4CCOCC4)nc3-c3cccc(NS(=O)(=O)c4cc(F)ccc4F)c3F)n2)CC1 [Example 82, 2,5-Difluoro-N-{2-fluoro-3-[5-(2-{[1-(methylsulfonyl)-4-piperidinyl]amino}-4-pyrimidinyl)-2-(4-morpholinyl)-1,3-thiazol-4-yl]phenyl}benzenesulfonamide]
IC50 [1, 4]: < 100 nM
IC50 [2]: < 100 nM
IC50 [3, 8]: < 100 nM

CC(C)Nc1nccc(-c2sc(N3CCOCC3)nc2-c2cccc(NS(=O)(=O)c3cc(F)ccc3F)c2F)n1 [Example 83, 2,5-Difluoro-N-{2-fluoro-3-[5-{2-[(1-methylethyl)amino]-4-pyrimidinyl}-2-(4-morpholinyl)-1,3-thiazol-4-yl]phenyl}benzenesulfonamide]
IC50 [1, 4]: < 100 nM
IC50 [1, 5]: < 100 nM
IC50 [2, 6]: < 100 nM
IC50 [2, 7]: ≤ 3.16 nM
IC50 [3, 8]: < 100 nM
IC50 [3, 9]: < 100 nM

CC(C)c1nc(-c2cccc(NS(=O)(=O)c3cccc(F)c3)c2)c(-c2ccnc(NCC(=O)O)n2)s1 [Example 85, N-{4-[4-(3-{[(3-Fluorophenyl)sulfonyl]amino}phenyl)-2-(1-methylethyl)-1,3-thiazol-5-yl]-2-pyrimidinyl}glycine]
IC50 [1, 4]: > 1000 nM
IC50 [2, 6]: 100 to 1000 nM
IC50 [2, 7]: 31.6 to 1000 nM
IC50 [3, 8]: > 1000 nM

CNc1nccc(-c2sc(C(C)C)nc2-c2cccc(NS(=O)(=O)c3cccc(F)c3)c2)n1 [Example 86, 3-Fluoro-N-{3-[5-[2-(methylamino)-4-pyrimidinyl]-2-(1-methylethyl)-1,3-thiazol-4-yl]phenyl}benzenesulfonamide]
IC50 [1, 4]: > 1000 nM
IC50 [1, 5]: 1000 to 10000 nM
IC50 [2, 6]: < 100 nM
IC50 [2, 7]: 31.6 to 1000 nM
IC50 [3, 8]: > 1000 nM
IC50 [3, 9]: 1000 to 10000 nM

CC(C)CNc1nccc(-c2sc(N3CCOCC3)nc2-c2cccc(NS(=O)(=O)c3c(F)cccc3F)c2F)n1 [Example 91, 2,6-Difluoro-N-{2-fluoro-3-[5-{2-[(2-methylpropyl)amino]-4-pyrimidinyl}-2-(4-morpholinyl)-1,3-thiazol-4-yl]phenyl}benzenesulfonamide]
IC50 [1, 4]: < 100 nM
IC50 [1, 5]: < 100 nM
IC50 [2, 6]: < 100 nM
IC50 [2, 7]: ≤ 3.16 nM
IC50 [3, 8]: < 100 nM
IC50 [3, 9]: < 100 nM

CC(C)CNc1nccc(-c2sc(C(C)(C)C)nc2-c2cccc(NS(=O)(=O)c3cc(F)ccc3F)c2F)n1 [Example 92, N-[3-(2-(1,1-Dimethylethyl)-5-{2-[(2-methylpropyl)amino]-4-pyrimidinyl}-1,3-thiazol-4-yl)-2-fluorophenyl]-2,5-difluorobenzenesulfonamide]
IC50 [1, 4]: < 100 nM
IC50 [1, 5]: < 100 nM
IC50 [2, 6]: < 100 nM
IC50 [2, 10]: 3.16 to 31.6 nM
IC50 [3, 8]: < 100 nM
IC50 [3, 9]: < 100 nM

CC(C)c1nc(-c2ccc(F)c(NS(=O)(=O)c3c(F)cccc3F)c2)c(-c2ccnc(NCC(F)F)n2)s1 [Example 93, N-{5-[5-{2-[(2,2-Difluoroethyl)amino]-4-pyrimidinyl}-2-(1-methylethyl)-1,3-thiazol-4-yl]-2-fluorophenyl}-2,6-difluorobenzenesulfonamide]
IC50 [1, 4]: 100 to 1000 nM
IC50 [1, 5]: 100 to 1000 nM
IC50 [2, 6]: < 100 nM
IC50 [2, 10]: 3.16 to 31.6 nM
IC50 [3, 8]: 100 to 1000 nM
IC50 [3, 9]: 100 to 1000 nM

CC(C)(C)c1nc(-c2cccc(NS(=O)(=O)c3cc(F)ccc3F)c2F)c(-c2ccnc(NCC(F)(F)F)n2)s1 [Example 94, N-[3-(2-(1,1-Dimethylethyl)-5-{2-[(2,2,2-trifluoroethyl)amino]-4-pyrimidinyl}-1,3-thiazol-4-yl)-2-fluorophenyl]-2,5-difluorobenzenesulfonamide]
IC50 [1, 4]: 100 to 1000 nM
IC50 [1, 5]: 100 to 1000 nM
IC50 [2, 6]: < 100 nM
IC50 [2, 10]: 3.16 to 31.6 nM
IC50 [3, 8]: 100 to 1000 nM
IC50 [3, 9]: 100 to 1000 nM

CC(C)c1nc(-c2ccc(F)c(NS(=O)(=O)c3c(F)cccc3F)c2)c(-c2ccnc(NCCCN3CCCC3=O)n2)s1 [Example 95, 2,6-Difluoro-N-{2-fluoro-5-[2-(1-methylethyl)-5-(2-{[3-(2-oxo-1-pyrrolidinyl)propyl]amino}-4-pyrimidinyl)-1,3-thiazol-4-yl]phenyl}benzenesulfonamide]
IC50 [1, 4]: 100 to 1000 nM
IC50 [1, 5]: 100 to 1000 nM
IC50 [2, 6]: < 100 nM
IC50 [2, 7]: 31.6 to 1000 nM
IC50 [3, 8]: 100 to 1000 nM
IC50 [3, 9]: 100 to 1000 nM
